The record followed here is ChEMBL document CHEMBL5154646, “Structure-guided optimization of 1H-imidazole-2-carboxylic acid derivatives affording potent VIM-Type metallo-β-lactamase inhibitors” (Eur J Med Chem, 2022).

The test system of test [1] is Escherichia coli. The test is described as follows: Potentiation of meropenem-induced antibacterial activity against Escherichia coli C1542 expressing VIM-2 assessed as fold reduction in meropenem MIC at 10 ug/ml incubated for 18 to 20 hrs by CLSI based broth microtiter dilution method. The format is functional. As to conditions: dose 10 µg/ml; time 18-20 hrs.
The test system of test [2] is Escherichia coli. The test is described as follows: Potentiation of meropenem-induced antibacterial activity against Escherichia coli C1542 expressing VIM-2 assessed as meropenem MIC at 10 ug/ml incubated for 18 to 20 hrs by CLSI based broth microtiter dilution method (reference value: 16 ug/ml). As to conditions: dose 10 µg/ml, time 18-20 hrs. The test is classed as functional.

The nature of test [3]: Inhibition of bacterial recombinant full length C-terminal-TEV-His6-tagged VIM-1 expressed in Escherichia coli Transetta using FC-5 as substrate preincubated with enzyme for 10 mins followed by substrate addition by fluorescence based analysis. More on the design: species or system Bacteria.
In test [4] the test system is Escherichia coli. As to the kind of experiment: Potentiation of meropenem-induced antibacterial activity against Escherichia coli C1541 expressing IMP-1 assessed as meropenem MIC at 10 ug/ml incubated for 18 to 20 hrs by broth microtiter dilution method (reference value: 32 ug/ml). The format is functional. The settings on record: dose 10 µg/ml, time 18-20 hrs.
Test [5] concerns Escherichia coli. As to the kind of experiment: Potentiation of meropenem-induced antibacterial activity against Escherichia coli C1541 expressing VIM-2 assessed as meropenem MIC at 10 ug/ml incubated for 18 to 20 hrs by CLSI based broth microtiter dilution method (reference value: 16 ug/ml). The settings on record: dose 10 µg/ml, time 18-20 hrs. The format is functional.
Test [6] deals with Escherichia coli. The test is described as follows: Potentiation of meropenem-induced antibacterial activity against Escherichia coli C1541 expressing IMP-1 assessed as fold reduction in meropenem MIC at 10 ug/ml incubated for 18 to 20 hrs by CLSI based broth microtiter dilution method. The format is functional. The settings on record: dose 10 µg/ml; time 18-20 hrs.
For test [7], the system named is Escherichia coli. As to the kind of experiment: Potentiation of meropenem-induced antibacterial activity against Escherichia coli C1541 expressing VIM-2 assessed as fold reduction in meropenem MIC at 10 ug/ml incubated for 18 to 20 hrs by CLSI based broth microtiter dilution method. The format is functional. The settings on record: dose 10 µg/ml; time 18-20 hrs.

A short description of test [8]: Inhibition of bacterial VIM-2 (27 to 266 residues) expressed in Escherichia coli Transetta (DE3) using FC-5 as substrate preincubated with enzyme for 10 mins followed by substrate addition by fluorescence based analysis. Also noted: species or system Bacteria.
Test [9] in a line: Inhibition of bacterial IMP-1 (1 to 246 residues) expressed in Escherichia coli Transetta (DE3) using FC-5 as substrate preincubated with enzyme for 10 mins followed by substrate addition by fluorescence based analysis. More on the design: species or system Bacteria.
The nature of test [10]: Inhibition of bacterial NDM-1 (1 to 270 residues) expressed in Escherichia coli Transetta (DE3) using FC-5 as substrate preincubated with enzyme for 10 mins followed by substrate addition by fluorescence based analysis. More on the design: species or system Bacteria.
Test [11] can be described thus: Inhibition of bacterial recombinant full length N-terminal-TEV-His6-tagged VIM-5 expressed in Escherichia coli Transetta using FC-5 as substrate preincubated with enzyme for 10 mins followed by substrate addition by fluorescence based analysis. More on the design: species or system Bacteria.

A value given as a limit tells only on which side of the number the result lay.

The MIC is the smallest concentration in the dilution series that meets the test's criterion for growth inhibition. A word on the IC50: it is the concentration needed to halve the response being measured. Consider `O=C(O)c1ncc(-c2ccccc2)n1Cc1ccccc1`, for which the “fold change (FC)” value in test [1] is 16; in test [6], 1; in test [7], 32. For the same compound, the MIC turned out to be 1 µg/mL in test [2], 32 µg/mL in test [4] and 0.5 µg/mL in test [5]. Besides, the IC50 in [3] was 4.31 µM; in [8], 0.015 µM; in test [9] it was over 300 µM; in [10], 59.2 µM; in test [11] it was 0.33 µM.

For `O=C(O)c1nccn1Cc1ccsc1`, the IC50 in [3] was 132 µM; in test [8] it was 5.07 µM; in [9], over 300 µM; in [10], over 300 µM; in [11], 30.3 µM.

For the compound `COCCn1ccnc1C(=O)O`, the IC50 in test [3] is 272 µM; in test [8], 15.5 µM; in test [9], over 300 µM; in [10] it was over 300 µM; in test [11] it was 101 µM.

On to `C=CCn1ccnc1C(=O)O`, for which the IC50 in test [3] is over 300 µM; in test [8], 46.4 µM; in test [9], over 300 µM; in [10], over 300 µM; in test [11], over 300 µM.

In the case of `O=C(O)c1nccn1Cc1ccc([N+](=O)[O-])cc1`, the IC50 in [3] stood at 13.9 µM; in test [8] it was 2.7 µM; in test [9], 30.2 µM; in test [10] it was 114 µM; in test [11] it was 0.065 µM.

As to `O=C(O)c1nc(C2CC2)cn1Cc1ccccc1`, the IC50 was over 300 µM in test [3]; 11.5 µM in test [8]; 17.8 µM in test [9]; over 300 µM in test [10]; over 300 µM in test [11].

Take `Cn1cc(Cn2ccnc2C(=O)O)cn1`: the IC50 was over 300 µM in test [3]; 33.5 µM in test [8]; over 300 µM in [9]; over 300 µM in test [10]; 83.9 µM in [11].

For `CSCn1ccnc1C(=O)O`, the 50% inhibitory concentration (IC50) in [3] was 18 µM; in test [8], 6.89 µM; in test [9], 114 µM; in [10] it was over 300 µM; in [11], 64 µM.

Consider `NCCn1ccnc1C(=O)O`, for which the IC50 in test [3], in test [8], in test [9], in test [10] and in test [11] was over 300 µM throughout.

For the compound `N#CCCCn1ccnc1C(=O)O`, the IC50 in test [3] was 47.1 µM; in [8], 11.8 µM; in test [9], 65.6 µM; in test [10], over 300 µM; in test [11] it was 15.6 µM.

As for `Nc1ccc(Cn2ccnc2C(=O)O)cc1`, the IC50 in test [3] was over 300 µM; in test [8], 30.2 µM; in test [9], over 300 µM; in test [10], over 300 µM; in [11], over 300 µM.

As to `NC(=O)Cn1ccnc1C(=O)O`, the IC50 in test [3] is over 300 µM; in test [8], 118 µM; in [9] it was over 300 µM; in test [10], over 300 µM; in [11] it was over 300 µM.

As to `C=CCCn1cc(C)nc1C(=O)O`, the IC50 is over 300 µM in test [3]; 13.7 µM in [8]; 4.05 µM in test [9]; over 300 µM in test [10]; 90.5 µM in test [11].

On to `O=C(O)c1nccn1C1CC1`, for which the IC50 in test [3] is 29.7 µM; in [8], 19.4 µM; in test [9] it was over 300 µM; in test [10] it was over 300 µM; in [11], 47.1 µM.

With `Cn1ccnc1C(=O)O`, the concentration for half-maximal inhibition (IC50) in test [3] is 227 µM; in test [8] it was over 300 µM; in test [9], over 300 µM; in [10], over 300 µM; in test [11], over 300 µM.

For `C[S+]([O-])Cn1ccnc1C(=O)O` (stereo unspecified), the 50% inhibitory concentration (IC50) in [3] was over 300 µM; in [8], 64.1 µM; in test [9], over 300 µM; in test [10], over 300 µM; in test [11], over 300 µM.

Regarding `Nc1cccc(Cn2ccnc2C(=O)O)c1`, the IC50 in test [3] was over 300 µM; in [8], 7.76 µM; in test [9] it was over 300 µM; in test [10], over 300 µM; in test [11], over 300 µM.

On to `O=C(O)c1nccn1Cc1ccc(Cl)s1`, for which the IC50 was over 300 µM in test [3]; 3.23 µM in [8]; 111 µM in [9]; 121 µM in [10]; 9.02 µM in test [11].

Consider `CCc1ccc(Cn2ccnc2C(=O)O)cc1`, for which the IC50 was over 300 µM in test [3]; 5.79 µM in test [8]; over 300 µM in test [9]; over 300 µM in test [10]; 23.4 µM in test [11].

For the compound `N#CCCn1ccnc1C(=O)O`, the IC50 is over 300 µM in test [3]; 22.2 µM in test [8]; over 300 µM in test [9]; over 300 µM in test [10]; over 300 µM in test [11].

Take `Cn1nnnc1SCCn1ccnc1C(=O)O`: the IC50 is 45.7 µM in test [3]; 2.13 µM in [8]; 160 µM in test [9]; over 300 µM in [10]; 16.5 µM in [11].

With `CN(C)CCn1ccnc1C(=O)O`, the IC50 in test [3], in [8], in test [9], in [10] and in test [11] was over 300 µM in each case.

In the case of `Cc1ccc(Cn2ccnc2C(=O)O)cc1`, the IC50 in test [3] is over 300 µM; in [8], 3.47 µM; in test [9] it was over 300 µM; in test [10] it was over 300 µM; in [11], 139 µM.

With `O=C(O)c1nc(-c2ccccc2)cn1Cc1ccccc1`, the IC50 in [3] was over 300 µM; in [8], 79.1 µM; in test [9], 9.29 µM; in [10], over 300 µM; in test [11] it was 48.3 µM.

In the case of `NCCCn1ccnc1C(=O)O`, the IC50 in [3] was over 300 µM; in test [8] it was 42.9 µM; in test [9], over 300 µM; in test [10], over 300 µM; in [11], 68.2 µM.

On to `O=C(O)c1nccn1C1CCC1`, for which the IC50 in test [3] is 32.1 µM; in test [8] it was 11.8 µM; in test [9], 161 µM; in test [10], over 300 µM; in test [11] it was over 300 µM.

For the compound `O=C(O)c1ncc[nH]1`, the IC50 in test [3] is over 300 µM; in test [8], 65.4 µM; in test [9] it was over 300 µM; in [10], over 300 µM; in test [11], 30.9 µM.

With `O=C(O)c1nccn1Cc1ccc(F)c(F)c1`, the IC50 in [3] was over 300 µM; in [8], 15.8 µM; in test [9], over 300 µM; in test [10] it was over 300 µM; in test [11], 14.9 µM.

Turning to `CC(C(=O)O)n1ccnc1C(=O)O` (stereo unspecified), the IC50 was over 300 µM in test [3]; 52.4 µM in test [8]; over 300 µM in test [9]; over 300 µM in test [10]; 32.5 µM in test [11].

As for `CS(=O)(=O)Cn1ccnc1C(=O)O`, the IC50 was over 300 µM in [3]; 33.6 µM in test [8]; over 300 µM in [9]; over 300 µM in test [10]; 249 µM in [11].

As for `O=C(O)c1nccn1Cc1cccs1`, the IC50 in test [3] is 50 µM; in test [8] it was 2.67 µM; in test [9] it was 100 µM; in [10], over 300 µM; in [11], 28.6 µM.

As to `O=C(O)c1nccn1C1COC1`, the IC50 in [3], in test [8], in test [9], in [10] and in test [11] was over 300 µM each time.

Consider `CCCn1ccnc1C(=O)O`, for which the IC50 is 15.3 µM in test [3]; 2.67 µM in [8]; 58.4 µM in test [9]; over 300 µM in test [10]; 18.9 µM in [11].

As to `Cc1cn(Cc2ccccc2)c(C(=O)O)n1`, the IC50 in test [3] is over 300 µM; in [8], 10.7 µM; in test [9] it was 1.5 µM; in test [10] it was over 300 µM; in test [11] it was 31.9 µM.

For the compound `Nn1ccnc1C(=O)O`, the IC50 in [3] was over 300 µM; in test [8] it was over 300 µM; in test [9], over 300 µM; in test [10], over 300 µM; in test [11] it was 30.6 µM.

Take `O=C(O)c1nccn1Cc1ccc(C(F)(F)F)cc1`: the concentration for half-maximal inhibition (IC50) in [3] is 17.5 µM; in [8], 0.56 µM; in test [9], 53.7 µM; in [10] it was over 300 µM; in test [11], 0.28 µM.
